Experiment: xn = mol fraction of the nth substance listed
Settings: Gas, Burnett expansion method

FC(C(F)(F)F)C(F)(F)F [1,1,1,2,3,3,3-heptafluoropropane] + FCF
Settings | mass density [kg/m3]
310 K, 149.52 kPa, x2 = 0.2648 | 8.291
310 K, 189.1 kPa, x2 = 0.5155 | 8.255
310 K, 204.07 kPa, x2 = 0.2648 | 11.439
310 K, 207.98 kPa, x2 = 0.7809 | 6.449
310 K, 258.01 kPa, x2 = 0.5155 | 11.389
310 K, 277.27 kPa, x2 = 0.2648 | 15.782
310 K, 284.06 kPa, x2 = 0.7809 | 8.897
310 K, 350.46 kPa, x2 = 0.5155 | 15.712
310 K, 374.4 kPa, x2 = 0.2648 | 21.774
310 K, 386.48 kPa, x2 = 0.7809 | 12.274
310 K, 473.07 kPa, x2 = 0.5155 | 21.676
310 K, 501.26 kPa, x2 = 0.2648 | 30.041
310 K, 523.12 kPa, x2 = 0.7809 | 16.934
310 K, 633.01 kPa, x2 = 0.5155 | 29.904
310 K, 662.59 kPa, x2 = 0.2648 | 41.446
310 K, 702.73 kPa, x2 = 0.7809 | 23.363
310 K, 836.5 kPa, x2 = 0.5155 | 41.255
310 K, 932.7 kPa, x2 = 0.7809 | 32.232
310 K, 1221.3 kPa, x2 = 0.7809 | 44.426
310 K, 1562.6 kPa, x2 = 0.7809 | 61.291
320 K, 154.66 kPa, x2 = 0.2648 | 8.285
320 K, 195.61 kPa, x2 = 0.5155 | 8.251
320 K, 211.27 kPa, x2 = 0.2648 | 11.431
320 K, 215.08 kPa, x2 = 0.7809 | 6.445
320 K, 267.14 kPa, x2 = 0.5155 | 11.383
320 K, 287.44 kPa, x2 = 0.2648 | 15.771
320 K, 294.06 kPa, x2 = 0.7809 | 8.892
320 K, 363.38 kPa, x2 = 0.5155 | 15.704
320 K, 388.88 kPa, x2 = 0.2648 | 21.758
320 K, 400.53 kPa, x2 = 0.7809 | 12.268
320 K, 491.5 kPa, x2 = 0.5155 | 21.665
320 K, 522.08 kPa, x2 = 0.2648 | 30.019
320 K, 543.05 kPa, x2 = 0.7809 | 16.926
320 K, 659.5 kPa, x2 = 0.5155 | 29.889
320 K, 693.04 kPa, x2 = 0.2648 | 41.416
320 K, 731.28 kPa, x2 = 0.7809 | 23.351
320 K, 875.19 kPa, x2 = 0.5155 | 41.235
320 K, 904.5 kPa, x2 = 0.2648 | 57.14
320 K, 974.36 kPa, x2 = 0.7809 | 32.216
320 K, 1142.5 kPa, x2 = 0.5155 | 56.888
320 K, 1282.2 kPa, x2 = 0.7809 | 44.404
320 K, 1653.9 kPa, x2 = 0.7809 | 61.261
320 K, 2072.7 kPa, x2 = 0.7809 | 84.517
330 K, 159.77 kPa, x2 = 0.2648 | 8.281
330 K, 202.1 kPa, x2 = 0.5155 | 8.247
330 K, 218.42 kPa, x2 = 0.2648 | 11.425
330 K, 222.17 kPa, x2 = 0.7809 | 6.442
330 K, 276.22 kPa, x2 = 0.5155 | 11.377
330 K, 297.52 kPa, x2 = 0.2648 | 15.763
330 K, 303.95 kPa, x2 = 0.7809 | 8.888
330 K, 376.17 kPa, x2 = 0.5155 | 15.696
330 K, 403.18 kPa, x2 = 0.2648 | 21.748
330 K, 414.44 kPa, x2 = 0.7809 | 12.262
330 K, 509.64 kPa, x2 = 0.5155 | 21.654
330 K, 542.59 kPa, x2 = 0.2648 | 30.004
330 K, 562.74 kPa, x2 = 0.7809 | 16.917
330 K, 685.57 kPa, x2 = 0.5155 | 29.874
330 K, 722.83 kPa, x2 = 0.2648 | 41.396
330 K, 759.44 kPa, x2 = 0.7809 | 23.34
330 K, 913.06 kPa, x2 = 0.5155 | 41.214
330 K, 948.75 kPa, x2 = 0.2648 | 57.112
330 K, 1015.2 kPa, x2 = 0.7809 | 32.2
330 K, 1198.4 kPa, x2 = 0.5155 | 56.859
330 K, 1218.7 kPa, x2 = 0.2648 | 78.795
330 K, 1341.7 kPa, x2 = 0.7809 | 44.382
330 K, 1540 kPa, x2 = 0.5155 | 78.443
330 K, 1742.4 kPa, x2 = 0.7809 | 61.23
330 K, 2206.8 kPa, x2 = 0.7809 | 84.475
340 K, 164.86 kPa, x2 = 0.2648 | 8.277
340 K, 208.54 kPa, x2 = 0.5155 | 8.243
340 K, 225.54 kPa, x2 = 0.2648 | 11.42
340 K, 229.21 kPa, x2 = 0.7809 | 6.439
340 K, 285.24 kPa, x2 = 0.5155 | 11.372
340 K, 307.52 kPa, x2 = 0.2648 | 15.755
340 K, 313.78 kPa, x2 = 0.7809 | 8.884
340 K, 388.85 kPa, x2 = 0.5155 | 15.688
340 K, 417.35 kPa, x2 = 0.2648 | 21.737
340 K, 428.24 kPa, x2 = 0.7809 | 12.256
340 K, 527.64 kPa, x2 = 0.5155 | 21.643
340 K, 562.85 kPa, x2 = 0.2648 | 29.989
340 K, 582.27 kPa, x2 = 0.7809 | 16.909
340 K, 711.31 kPa, x2 = 0.5155 | 29.859
340 K, 752.13 kPa, x2 = 0.2648 | 41.375
340 K, 787.28 kPa, x2 = 0.7809 | 23.328
340 K, 950.24 kPa, x2 = 0.5155 | 41.194
340 K, 991.76 kPa, x2 = 0.2648 | 57.084
340 K, 1055.4 kPa, x2 = 0.7809 | 32.184
340 K, 1252.9 kPa, x2 = 0.5155 | 56.831
340 K, 1283.1 kPa, x2 = 0.2648 | 78.756
340 K, 1399.9 kPa, x2 = 0.7809 | 44.36
340 K, 1614 kPa, x2 = 0.2648 | 108.656
340 K, 1621.4 kPa, x2 = 0.5155 | 78.404
340 K, 1828.5 kPa, x2 = 0.7809 | 61.2
340 K, 2042.8 kPa, x2 = 0.5155 | 108.166
340 K, 2336.2 kPa, x2 = 0.7809 | 84.433
350 K, 169.93 kPa, x2 = 0.2648 | 8.273
350 K, 214.96 kPa, x2 = 0.5155 | 8.239
350 K, 232.62 kPa, x2 = 0.2648 | 11.414
350 K, 236.22 kPa, x2 = 0.7809 | 6.436
350 K, 294.24 kPa, x2 = 0.5155 | 11.366
350 K, 317.47 kPa, x2 = 0.2648 | 15.747
350 K, 323.59 kPa, x2 = 0.7809 | 8.879
350 K, 401.46 kPa, x2 = 0.5155 | 15.68
350 K, 431.39 kPa, x2 = 0.2648 | 21.726
350 K, 441.97 kPa, x2 = 0.7809 | 12.25
350 K, 545.49 kPa, x2 = 0.5155 | 21.633
350 K, 582.86 kPa, x2 = 0.2648 | 29.974
350 K, 601.65 kPa, x2 = 0.7809 | 16.901
350 K, 736.76 kPa, x2 = 0.5155 | 29.844
350 K, 780.99 kPa, x2 = 0.2648 | 41.355
350 K, 814.82 kPa, x2 = 0.7809 | 23.317
350 K, 986.94 kPa, x2 = 0.5155 | 41.173
350 K, 1033.9 kPa, x2 = 0.2648 | 57.055
350 K, 1095 kPa, x2 = 0.7809 | 32.168
350 K, 1306.5 kPa, x2 = 0.5155 | 56.803
350 K, 1345.8 kPa, x2 = 0.2648 | 78.717
350 K, 1457.2 kPa, x2 = 0.7809 | 44.338
350 K, 1700.8 kPa, x2 = 0.5155 | 78.365
350 K, 1709.1 kPa, x2 = 0.2648 | 108.602
350 K, 1912.8 kPa, x2 = 0.7809 | 61.169
350 K, 2092.9 kPa, x2 = 0.2648 | 149.834
350 K, 2162.7 kPa, x2 = 0.5155 | 108.113
350 K, 2462 kPa, x2 = 0.7809 | 84.391
350 K, 2654.5 kPa, x2 = 0.5155 | 149.152
360 K, 174.96 kPa, x2 = 0.2648 | 8.269
